Earlier results, collected in patent EP3639895A1, “METHOD OF REDUCING PERSPIRATION” (priority 2018, dated 2020).

Test system: Staphylococcus epidermidis
Details: 80% or greater reduction in growth of inoculum over 16 to 24 hours at 37°C

minimum inhibitory concentration (MIC) | Compound
greater than 1 mg.ml^-1 | CCO [ethanol]
ca. 25 µg.ml^-1 | CC(C)=CCCC(C)=CCCC(C)=CCO [farnesol, 3,7,11-trimethyldodeca-2,6,10-trienol]

Compound | minimum inhibitory concentration (MIC)
Oc1cc(Cl)ccc1Oc1ccc(Cl)cc1Cl [triclosan, 2',4,4'-trichloro,2-hydroxy-diphenyl ether] | 0.01 to 10 µg/mL
